Results reported in patent US7223888B2, “Mu opioid receptor ligands: methods of use and synthesis” (President and Fellows of Harvard College, priority 2002, dated 2007).
Like-named read-outs stand apart in the source and are kept apart here.

Tests used:
[1] = biological target: T1, KOR (Cavia porcellus, UniProt P41144); test: Opioid receptor competitive binding assay, KOR (3H-U-69,593); parameters: species or system guinea pig; details: for Ki KOR/Ki MOR: selectivity for MOR versus KOR
T1 construct: from tissue; host or cells: guinea pig cerebellum preparation
Procedure: (§1) For selected compounds, Ki for MOR, DOR, and KOR were determined according to the following procedure: Recombinant hMOR-1 membrane preps from stably transfected CHO cells and recombinant hDOR-1 membrane preps from stably transfected HEK-293 cells were purchased from Amersham Biosciences. Guinea pig cerebellum preparations were used for KOR assays.
(§2) Each microassay from an assay plate was filtered through an individual well of a Packard GF/B 96-well filter plate (glass fiber filter) to collect the membranes. Each well was washed twice with 200 μL of ice cold wash buffer (50 mM Tris, pH 7.4). The filter plate was allowed to dry overnight, the back was sealed, and Packard Bioscience Microscint PS scintillation fluid (75 μL) was added to each well, which was then counted for ^3H for 2 minutes using a Packard Bioscience TopCount scintillation counter plate reader.
(§3) Each compound was assayed at 8 concentrations, using half-log serial dilutions. Each concentration was tested in triplicate, and the ^3H cpm were averaged.
(§4) This triplicate experiment was repeated three times for the MOR and twice for the DOR and the KOR.

[2] = biological target: T2, hDOR-1 (Homo sapiens, UniProt P41143); test: Opioid receptor competitive binding assay, DOR
T2 construct: purchased Amersham Biosciences; host or cells: stably transfected HEK-293 cells (membrane preparation)
Procedure: as §1, §2, §3
(§5) This concentration was determined experimentally by scintillation counting an aliquot of the radioligand stock solution used in the assay.
(§6) Kd=the binding constant for the radioligand.
as §4

[3] = biological target: T3, hMOR-1 (Homo sapiens, UniProt P35372); test: MOR GTP-γ-S assay (MOR activation); assay type: biochemical; details: CHO membranes with hMOR-1; for % GTP-γ-35S bound: Table 15, percentage of DAMGO induced GTP-g-35S specific binding; for % GTP-γ-S bound: Table 16, compound 10 μM, percentage of DAMGO induced GTP-γ-35S specific binding
T3 construct: purchased Amersham Biosciences; host or cells: stably transfected CHO cells (membrane preparation)
Procedure: MOR GTP-γ-S assay was run in the same 200 μL, 96 well format as the binding assay. Each microassay contained experimental compound, 0.04 nM GTP-γ-^35S, 9 μM GDP, and about 0.02 nM MOR (from stably transfected CHO cells), in assay buffer (50 mM Tris-HCl, 3 mM MgCl2, 0.2 mM EGTA, 100 mM NaCl, pH 7.4). The assays were incubated for two to three hours at room temperature, then filtered onto a filter plate. The plate was dried; scintillation fluid was added, and the wells were counted for ^35S. Blank assays were run to determine non-specific binding. […] The results were averaged; the non-specific counts were subtracted, and the resulting value was expressed as a percent of the value obtained for DAMGO. The error reported is two standard deviations from the mean of the quadruplicate experiment. The values were compared using one way Anova with Tukey's post-hoc analysis.

[4] = biological target: T3, hMOR-1; test: Opioid receptor competitive binding assay, MOR (3H-DAMGO); details: Ki MOR, 3H-DAMGO, hMOR-1 stably transfected into CHO cells
Procedure: as §1, §2, §3, §5, §6, §4

[5] = Ki KOR, Table 10, 3H-U-69,593, guinea pig cerebellum preparation, errors two standard deviations
[6] = Ki DOR, Table 7, 3H-diprenorphine, hDOR-1 stably transfected into HEK-293 cells, errors two standard deviations
[7] = Table 13, selectivity for MOR versus DOR (footnote: 3H-DPDPE, hDOR-1)
[8] = Table 4, errors 95% confidence interval
[9] = Table 3, errors 95% confidence interval
[10] = Ki KOR, Table 9, 3H-U-69,593, guinea pig cerebellum preps, errors two standard deviations
[11] = Ki DOR, Table 6, footnote:, hDOR-1 stably transfected into HEK-293 cells, errors two standard deviations
[12] = Table 12, selectivity for MOR versus DOR (3H-DPDPE, hDOR-1)

SMILES: Cc1cc(O)cc(C)c1CC(N)C(O)C/C=C/C(O)C(Cc1ccccc1)C(=O)NC(Cc1ccccc1)C(N)=O (single isomer, unassigned) [(S,R,S,R)-25, 7-(1-Carbamoyl-2-phenyl-ethylcarbamoyl)-2,6-dihydroxy-1-(4-hydroxy-2,6-dimethyl-benzyl)-8-phenyl-oct-4-enyl-ammonium]
- Ki [1, 5]: 15 ± 8 nM
- Ki KOR/Ki MOR ([1]; Table 13): 13
- Ki [2, 6]: 46 ± 16 nM
- Ki DOR/Ki MOR [2, 7]: 38
- % GTP-γ-35S bound ([3]; compound 10 mM (footnote)): 14 ± 3%
- Ki [4, 8]: 1.2 ± 0.3 nM

SMILES: NC(=O)C(Cc1ccccc1)NC(=O)C(Cc1ccccc1)C(O)/C=C/C(O)CC(N)Cc1ccc(O)cc1 (single isomer, unassigned) [(S, S, R, S)-43, 7-(1-Carbamoyl-2-phenyl-ethylcarbamoyl)-3,6-dihydroxy-1-(4-hydroxy-benzyl)-8-phenyl-oct-4-enyl-ammonium]
- Ki ([1]; read-out: Ki KOR): 450 ± 60 nM
- Ki ([2]; read-out: Ki DOR): 1200 ± 100 nM
- % GTP-γ-S bound [3]: 25 ± 5%
- Ki ([4]; Table 5): 14 ± 1 nM

SMILES: Cc1cc(O)cc(C)c1CC(N)C(O)C/C=C/C(O)C(Cc1ccccc1)C(=O)NC(Cc1ccccc1)C(N)=O (single isomer, unassigned) [(S,S,R,R)-25, 7-(1-Carbamoyl-2-phenyl-ethylcarbamoyl)-2,6-dihydroxy-1-(4-hydroxy-2,6-dimethyl-benzyl)-8-phenyl-oct-4-enyl-ammonium]
- Ki [1, 5]: 21 ± 4 nM
- Ki KOR/Ki MOR ([1]; Table 13): 49
- Ki [2, 6]: 36 ± 6 nM
- Ki DOR/Ki MOR [2, 7]: 86
- % GTP-γ-35S bound ([3]; compound 10 mM (footnote)): 75 ± 11%
- Ki [4, 8]: 0.42 ± 0.09 nM

SMILES: Cc1cc(O)cc(C)c1CC(N)C(O)C/C=C/C(O)C(Cc1ccccc1)C(=O)NC(CO)Cc1ccccc1 [(S,S,S,R)-27]
- Ki [1, 5]: 69 ± 14 nM
- Ki [2, 6]: 54 ± 8 nM
- % GTP-γ-35S bound ([3]; compound 10 mM (footnote)): 44 ± 6%
- Ki [4, 8]: 0.16 ± 0.06 nM

SMILES: Cc1cc(O)cc(C)c1CC(N)C(O)C/C=C/C(O)C(Cc1ccccc1)C(=O)NCCc1ccccc1 (single isomer, unassigned) [(S,S,S,R)-26, 2,6-Dihydroxy-1-(4-hydroxy-2,6-dimethyl-benzyl)-7-phenethylcarbamoyl-8-phenyl-oct-4-enyl-ammonium]
- Ki [1, 5]: 42 ± 29 nM
- Ki KOR/Ki MOR ([1]; Table 13): 140
- Ki [2, 6]: 99 ± 11 nM
- Ki DOR/Ki MOR [2, 7]: 340
- % GTP-γ-35S bound ([3]; compound 10 mM (footnote)): 40 ± 3%
- Ki [4, 8]: 0.29 ± 0.06 nM

SMILES: Cc1cc(O)cc(C)c1CC(N)C(O)C/C=C/C(O)C(Cc1ccccc1)C(=O)NC(Cc1ccccc1)C(N)=O (single isomer, unassigned) [(S,S,R,S)-25, 7-(1-Carbamoyl-2-phenyl-ethylcarbamoyl)-2,6-dihydroxy-1-(4-hydroxy-2,6-dimethyl-benzyl)-8-phenyl-oct-4-enyl-ammonium]
- Ki [1, 5]: 50 ± 16 nM
- Ki KOR/Ki MOR ([1]; Table 13): 41
- Ki [2, 6]: 230 ± 20 nM
- Ki DOR/Ki MOR [2, 7]: 190
- % GTP-γ-35S bound ([3]; compound 10 mM (footnote)): 32 ± 5%
- Ki [4, 8]: 1.2 ± 0.4 nM

SMILES: NC(=O)C(Cc1ccccc1)NC(=O)C(Cc1ccccc1)C(O)/C=C/C(O)CC(N)Cc1ccc(O)cc1 (single isomer, unassigned) [(S, R, S, R)-43, 7-(1-Carbamoyl-2-phenyl-ethylcarbamoyl)-3,6-dihydroxy-1-(4-hydroxy-benzyl)-8-phenyl-oct-4-enyl-ammonium]
- Ki ([1]; read-out: Ki KOR): 290 ± 100 nM
- Ki ([2]; read-out: Ki DOR): 740 ± 40 nM
- % GTP-γ-S bound [3]: 37 ± 7%
- Ki ([4]; Table 5): 32 ± 6 nM

SMILES: NC(=O)C(Cc1ccccc1)NC(=O)C(Cc1ccccc1)C(O)/C=C/C(O)CC(N)Cc1ccc(O)cc1 (single isomer, unassigned) [(S, R, R, S)-43, 7-(1-Carbamoyl-2-phenyl-ethylcarbamoyl)-3,6-dihydroxy-1-(4-hydroxy-benzyl)-8-phenyl-oct-4-enyl-ammonium]
- Ki ([1]; read-out: Ki KOR): 1200 ± 600 nM
- Ki ([2]; read-out: Ki DOR): 2500 ± 3000 nM
- % GTP-γ-S bound [3]: 48 ± 8%
- Ki ([4]; Table 5): 28 ± 6 nM

SMILES: NC(=O)C(Cc1ccccc1)NC(=O)C(Cc1ccccc1)C(O)/C=C/C(O)CC(N)Cc1ccc(O)cc1 (single isomer, unassigned) [(S, R, S, S)-43, 7-(1-Carbamoyl-2-phenyl-ethylcarbamoyl)-3,6-dihydroxy-1-(4-hydroxy-benzyl)-8-phenyl-oct-4-enyl-ammonium]
- Ki ([1]; read-out: Ki KOR): 3100 ± 2600 nM
- Ki ([2]; read-out: Ki DOR): 2500 ± 300 nM
- % GTP-γ-S bound [3]: 57 ± 12%
- Ki ([4]; Table 5): 42 ± 5 nM

SMILES: Cc1cc(O)cc(C)c1CC(N)C(O)C/C=C/C(O)C(Cc1ccccc1)C(=O)OC(CO)Cc1ccccc1 [(S,S,S,R)-30, 7-(1-Benzyl-2-hydroxy-ethoxycarbonyl)-2,6-dihydroxy-1-(4-hydroxy-2,6-dimethyl-benzyl)-8-phenyl-oct-4-enyl-ammonium]
- Ki [1, 5]: 85 ± 1 nM
- Ki KOR/Ki MOR ([1]; Table 13): 190
- Ki [2, 6]: 17 ± 6 nM
- Ki DOR/Ki MOR [2, 7]: 39
- % GTP-γ-35S bound ([3]; compound 10 mM (footnote)): 62 ± 4%
- Ki [4, 8]: 0.44 ± 0.01 nM

SMILES: Cc1cc(O)cc(C)c1CC(N)C(O)C/C=C/C(O)C(Cc1ccccc1)C(=O)NCCc1ccccc1 (single isomer, unassigned) [(S,R,R,R)-26, 2,6-Dihydroxy-1-(4-hydroxy-2,6-dimethyl-benzyl)-7-phenethylcarbamoyl-8-phenyl-oct-4-enyl-ammonium]
- Ki [1, 5]: 69 ± 20 nM
- Ki KOR/Ki MOR ([1]; Table 13): 96
- Ki [2, 6]: 66 ± 1 nM
- Ki DOR/Ki MOR [2, 7]: 91
- % GTP-γ-35S bound ([3]; compound 10 mM (footnote)): 27 ± 9%
- Ki [4, 8]: 0.72 ± 0.26 nM

SMILES: Cc1cc(O)cc(C)c1CC(N)C(O)C/C=C/C(O)C(Cc1ccccc1)C(=O)NCCc1ccccc1 (single isomer, unassigned) [(S,S,R,S)-26, 2,6-Dihydroxy-1-(4-hydroxy-2,6-dimethyl-benzyl)-7-phenethylcarbamoyl-8-phenyl-oct-4-enyl-ammonium]
- Ki [1, 5]: 60 ± 32 nM
- Ki KOR/Ki MOR ([1]; Table 13): 94
- Ki [2, 6]: 120 ± 30 nM
- Ki DOR/Ki MOR [2, 7]: 190
- % GTP-γ-35S bound ([3]; compound 10 mM (footnote)): 52 ± 6%
- Ki [4, 8]: 0.64 ± 0.09 nM

SMILES: NC(=O)[C@H](Cc1ccccc1)NC(=O)[C@H](Cc1ccccc1)NC(=O)[C@H]1CCCN1C(=O)[C@@H](N)Cc1ccc(O)cc1 [Compound 1, Endomorphin-2, reference compound]
- % GTP-γ-35S bound ([3]; compound 10 μM (footnote)): 100 ± 6%
- % GTP-γ-S bound [3]: 100 ± 6%
- Ki [4, 9]: 1.2 ± 0.1 nM
- Ki [4, 8]: 0.69 ± 0.18 nM
- Ki ([4]; Table 5): 1 ± 0.1 nM

SMILES: Cc1cc(O)cc(C)c1CC(N)C(O)C/C=C/C(O)C(Cc1ccccc1)C(=O)NC(CN)Cc1ccccc1 [(S,S,S,R)-28]
- Ki [2, 6]: 21 ± 4 nM
- % GTP-γ-35S bound ([3]; compound 10 mM (footnote)): 47 ± 5%
- Ki [4, 8]: 0.45 ± 0.05 nM

SMILES: NC(Cc1ccc(O)cc1)C(O)C/C=C/C(O)C(Cc1ccccc1)C(=O)NCCc1ccccc1 (single isomer, unassigned) [(S,S,R,R)-10, (E)-8-Amino-2-benzyl-3,7-dihydroxy-9-(4-hydroxy-phenyl)-non-4-enoic acid phenethyl-amide]
- Ki [1, 10]: 3400 ± 300 nM
- Ki KOR/Ki MOR ([1]; Table 12): 120
- Ki [2, 11]: 1200 ± 300 nM
- Ki DOR/Ki MOR [2, 12]: 42
- Ki [4, 9]: 29 ± 8 nM

SMILES: NC(=O)C(Cc1ccccc1)OC(=O)C(Cc1ccccc1)C(O)/C=C/CC(O)C(N)Cc1ccc(O)cc1 [(S,S,S,R)-13, (E)-8-Amino-2-benzyl-3,7-dihydroxy-9-(4-hydroxy-phenyl)-non-4-enoic acid1-carbamoyl-2-phenyl-ethyl ester]
- Ki ([1]; read-out: Ki KOR): 6000 ± 2100 nM
- Ki ([2]; read-out: Ki DOR): 910 ± 250 nM
- Ki [4, 9]: 37 ± 8 nM

SMILES: NC(=O)C(Cc1ccccc1)NC(=O)C(Cc1ccccc1)C(O)/C=C/CC(O)C(N)Cc1ccc(O)cc1 (single isomer, unassigned) [(S,S,R,R)-2, (E)-8-Amino-2-benzyl-3,7-dihydroxy-9-(4-hydroxy-phenyl)-non-4-enoic acid (1-carbamoyl-2-phenyl-ethyl)-amide]
- Ki [1, 10]: 1200 ± 700 nM
- Ki KOR/Ki MOR ([1]; Table 12): 48
- Ki [2, 11]: 1200 ± 100 nM
- Ki DOR/Ki MOR [2, 12]: 45
- Ki [4, 9]: 25 ± 5 nM
